Data as given in the kinase profiling compilation of Christmann-Franck et al. (2016).

How the values were obtained:
Test in all cases: radiometric filter-binding kinase assay, Kinaseprofiler
[1] = system: PHKG2 (human), P15735 [F290L]; settings: ATP 10 µM
[2] = system: MAPKAPK5 (human), Q8IW41 [R291E]; settings: ATP 15 µM
[3] = system: ROS1 (human), P08922 [V2262A]; settings: ATP 200 µM
[4] = system: GSK3B (human), P49841 [H350L]; settings: ATP 15 µM
[5] = system: AKT3 (human), Q9Y243 [S472D]; settings: ATP 45 µM
[6] = system: CSNK1G3 (human), Q9Y6M4 [K91E/R174G/E302D]; settings: ATP 10 µM
Sequence of CSNK1G3 (human), Q9Y6M4 [K91E/R174G/E302D] (Q9Y6M4 whole entry, looked up, stated change not applied): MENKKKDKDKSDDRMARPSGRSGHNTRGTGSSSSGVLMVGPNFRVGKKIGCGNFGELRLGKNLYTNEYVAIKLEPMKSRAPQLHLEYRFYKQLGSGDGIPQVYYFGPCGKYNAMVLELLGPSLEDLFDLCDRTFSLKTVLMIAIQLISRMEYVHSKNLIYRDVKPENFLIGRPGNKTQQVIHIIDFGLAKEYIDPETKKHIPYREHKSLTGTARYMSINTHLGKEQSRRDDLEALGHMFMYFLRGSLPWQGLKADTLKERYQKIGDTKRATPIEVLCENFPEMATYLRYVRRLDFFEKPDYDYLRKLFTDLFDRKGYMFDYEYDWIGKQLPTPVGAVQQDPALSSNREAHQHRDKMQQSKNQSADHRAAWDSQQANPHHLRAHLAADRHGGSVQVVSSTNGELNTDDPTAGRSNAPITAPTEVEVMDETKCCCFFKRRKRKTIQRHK

Sequence of PHKG2 (human), P15735 [F290L] (P15735 whole entry F290L, looked up): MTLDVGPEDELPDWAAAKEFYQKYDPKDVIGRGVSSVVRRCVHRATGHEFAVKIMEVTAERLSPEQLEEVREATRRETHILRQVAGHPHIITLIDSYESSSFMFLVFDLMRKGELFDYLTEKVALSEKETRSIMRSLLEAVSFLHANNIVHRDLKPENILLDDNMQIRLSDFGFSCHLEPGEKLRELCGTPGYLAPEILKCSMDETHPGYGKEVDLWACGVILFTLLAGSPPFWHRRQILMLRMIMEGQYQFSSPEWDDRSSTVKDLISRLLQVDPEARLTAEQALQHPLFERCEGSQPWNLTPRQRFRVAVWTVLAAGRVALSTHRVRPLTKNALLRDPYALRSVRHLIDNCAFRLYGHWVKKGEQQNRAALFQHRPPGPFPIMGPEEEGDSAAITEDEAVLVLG
Sequence of GSK3B (human), P49841 [H350L] (P49841 whole entry, looked up, stated change not applied): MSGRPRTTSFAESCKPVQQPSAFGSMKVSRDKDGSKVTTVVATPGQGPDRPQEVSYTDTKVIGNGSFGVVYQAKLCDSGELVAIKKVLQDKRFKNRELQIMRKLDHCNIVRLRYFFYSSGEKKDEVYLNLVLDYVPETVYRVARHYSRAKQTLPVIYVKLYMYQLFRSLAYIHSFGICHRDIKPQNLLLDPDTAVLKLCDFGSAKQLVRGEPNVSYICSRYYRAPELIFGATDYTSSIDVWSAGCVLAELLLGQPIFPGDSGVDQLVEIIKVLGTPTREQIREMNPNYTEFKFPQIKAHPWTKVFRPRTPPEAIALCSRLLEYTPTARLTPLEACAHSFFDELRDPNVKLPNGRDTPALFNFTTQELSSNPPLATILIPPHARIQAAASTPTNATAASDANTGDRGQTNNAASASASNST
Sequence of AKT3 (human), Q9Y243 [S472D] (Q9Y243 whole entry S472D, looked up): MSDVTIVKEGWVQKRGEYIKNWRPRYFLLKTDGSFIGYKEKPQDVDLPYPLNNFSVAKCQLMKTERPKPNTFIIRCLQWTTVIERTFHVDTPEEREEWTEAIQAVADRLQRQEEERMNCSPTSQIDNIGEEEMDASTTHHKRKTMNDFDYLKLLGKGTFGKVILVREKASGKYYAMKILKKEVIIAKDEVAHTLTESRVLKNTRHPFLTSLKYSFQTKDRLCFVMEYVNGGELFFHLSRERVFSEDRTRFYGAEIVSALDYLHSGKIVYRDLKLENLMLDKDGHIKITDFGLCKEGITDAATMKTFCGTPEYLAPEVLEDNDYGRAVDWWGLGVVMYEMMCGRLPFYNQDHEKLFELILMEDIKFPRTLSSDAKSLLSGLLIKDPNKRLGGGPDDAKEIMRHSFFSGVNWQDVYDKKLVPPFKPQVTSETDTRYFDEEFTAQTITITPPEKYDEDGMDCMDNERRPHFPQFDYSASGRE
Sequence of ROS1 (human), P08922 [V2262A] (P08922 whole entry, looked up, stated change not applied): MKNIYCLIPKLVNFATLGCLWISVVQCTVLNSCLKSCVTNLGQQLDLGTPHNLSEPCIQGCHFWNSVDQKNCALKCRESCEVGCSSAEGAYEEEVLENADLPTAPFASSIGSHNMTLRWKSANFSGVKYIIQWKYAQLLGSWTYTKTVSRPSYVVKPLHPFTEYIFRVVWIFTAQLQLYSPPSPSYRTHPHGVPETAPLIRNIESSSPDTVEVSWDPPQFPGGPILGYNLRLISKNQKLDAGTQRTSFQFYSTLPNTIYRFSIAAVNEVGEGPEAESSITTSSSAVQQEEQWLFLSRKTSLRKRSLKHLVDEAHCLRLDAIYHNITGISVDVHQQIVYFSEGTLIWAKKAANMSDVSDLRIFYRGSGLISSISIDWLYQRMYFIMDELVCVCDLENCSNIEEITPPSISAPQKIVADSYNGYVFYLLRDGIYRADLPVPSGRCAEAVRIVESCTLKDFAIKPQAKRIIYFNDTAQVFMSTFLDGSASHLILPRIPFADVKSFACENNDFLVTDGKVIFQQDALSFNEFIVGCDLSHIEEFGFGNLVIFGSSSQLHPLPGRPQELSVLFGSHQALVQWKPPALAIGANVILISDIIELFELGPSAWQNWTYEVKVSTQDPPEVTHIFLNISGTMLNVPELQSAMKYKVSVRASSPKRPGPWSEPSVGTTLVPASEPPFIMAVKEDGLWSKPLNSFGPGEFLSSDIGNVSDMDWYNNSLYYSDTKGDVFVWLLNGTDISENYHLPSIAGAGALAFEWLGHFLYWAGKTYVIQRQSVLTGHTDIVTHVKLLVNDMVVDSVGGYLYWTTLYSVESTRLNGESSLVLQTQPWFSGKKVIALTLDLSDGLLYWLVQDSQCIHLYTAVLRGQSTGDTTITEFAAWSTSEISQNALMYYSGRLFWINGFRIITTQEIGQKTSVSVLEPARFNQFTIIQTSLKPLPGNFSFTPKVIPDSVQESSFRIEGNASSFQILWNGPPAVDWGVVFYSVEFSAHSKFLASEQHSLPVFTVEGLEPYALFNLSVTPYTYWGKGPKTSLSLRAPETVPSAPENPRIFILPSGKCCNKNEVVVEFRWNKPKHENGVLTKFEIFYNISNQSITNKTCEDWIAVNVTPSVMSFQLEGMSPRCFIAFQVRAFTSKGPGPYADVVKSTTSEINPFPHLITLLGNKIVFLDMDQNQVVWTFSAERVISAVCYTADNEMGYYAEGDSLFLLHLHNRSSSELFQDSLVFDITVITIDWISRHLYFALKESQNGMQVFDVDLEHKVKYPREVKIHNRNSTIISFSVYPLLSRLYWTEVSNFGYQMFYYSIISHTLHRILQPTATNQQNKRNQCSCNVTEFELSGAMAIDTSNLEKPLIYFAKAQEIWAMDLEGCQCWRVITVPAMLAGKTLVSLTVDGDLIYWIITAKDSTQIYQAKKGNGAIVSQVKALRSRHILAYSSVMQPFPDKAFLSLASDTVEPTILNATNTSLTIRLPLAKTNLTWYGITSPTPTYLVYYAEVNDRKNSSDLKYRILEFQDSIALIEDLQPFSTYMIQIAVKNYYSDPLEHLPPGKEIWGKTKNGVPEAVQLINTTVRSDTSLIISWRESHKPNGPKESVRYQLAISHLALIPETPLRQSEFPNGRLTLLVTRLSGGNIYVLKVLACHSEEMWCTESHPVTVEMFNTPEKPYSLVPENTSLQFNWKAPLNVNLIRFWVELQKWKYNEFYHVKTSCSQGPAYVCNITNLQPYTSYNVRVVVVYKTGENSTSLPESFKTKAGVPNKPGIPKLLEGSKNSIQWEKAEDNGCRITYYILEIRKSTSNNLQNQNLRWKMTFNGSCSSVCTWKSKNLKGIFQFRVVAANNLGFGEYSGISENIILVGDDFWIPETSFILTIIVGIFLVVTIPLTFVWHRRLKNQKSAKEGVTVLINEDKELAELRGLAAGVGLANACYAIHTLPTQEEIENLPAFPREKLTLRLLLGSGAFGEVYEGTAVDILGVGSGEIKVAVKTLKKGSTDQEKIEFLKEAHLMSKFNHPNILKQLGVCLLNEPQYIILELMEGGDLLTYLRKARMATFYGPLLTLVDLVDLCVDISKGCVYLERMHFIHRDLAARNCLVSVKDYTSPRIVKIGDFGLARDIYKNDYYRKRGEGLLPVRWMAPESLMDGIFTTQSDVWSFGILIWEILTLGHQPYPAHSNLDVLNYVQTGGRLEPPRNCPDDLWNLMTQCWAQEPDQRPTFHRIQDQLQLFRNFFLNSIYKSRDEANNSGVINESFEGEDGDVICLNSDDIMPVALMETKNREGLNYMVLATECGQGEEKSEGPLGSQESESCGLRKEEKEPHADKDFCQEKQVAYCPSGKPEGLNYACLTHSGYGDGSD
Sequence of MAPKAPK5 (human), Q8IW41 [R291E] (Q8IW41 whole entry, looked up, stated change not applied): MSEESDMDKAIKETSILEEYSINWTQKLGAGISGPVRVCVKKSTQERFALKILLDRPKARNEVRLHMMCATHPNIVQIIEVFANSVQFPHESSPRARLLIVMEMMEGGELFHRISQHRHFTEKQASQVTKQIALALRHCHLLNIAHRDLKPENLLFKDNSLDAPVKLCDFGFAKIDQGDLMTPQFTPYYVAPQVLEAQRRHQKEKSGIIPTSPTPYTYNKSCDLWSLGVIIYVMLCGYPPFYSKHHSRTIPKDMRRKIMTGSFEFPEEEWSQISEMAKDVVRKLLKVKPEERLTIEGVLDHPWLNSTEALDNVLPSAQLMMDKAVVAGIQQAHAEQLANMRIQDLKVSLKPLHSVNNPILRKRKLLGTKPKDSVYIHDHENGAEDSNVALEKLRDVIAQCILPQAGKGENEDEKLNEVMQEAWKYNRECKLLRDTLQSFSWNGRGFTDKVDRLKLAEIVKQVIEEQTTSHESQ

SMILES	residual activity ([1]; compound 1.0 µM) [%]	residual activity ([2]; compound 10.0 µM) [%]	residual activity ([3]; compound 1.0 µM) [%]	residual activity ([3]; compound 10.0 µM) [%]	residual activity ([1]; compound 10.0 µM) [%]	residual activity ([4]; compound 1.0 µM) [%]	residual activity ([4]; compound 10.0 µM) [%]	residual activity ([5]; compound 1.0 µM) [%]	residual activity ([5]; compound 10.0 µM) [%]	residual activity ([2]; compound 1.0 µM) [%]	residual activity ([6]; compound 1.0 µM) [%]	residual activity ([6]; compound 10.0 µM) [%]
COC(=O)[C@]1(O)C[C@@H]2O[C@@]1(C)n1c3ccccc3c3c4c(c5c6ccccc6n2c5c31)C(=O)NC4	0	0										
CN[C@@H]1C[C@H]2O[C@@](C)([C@@H]1OC)n1c3ccccc3c3c4c(c5c6ccccc6n2c5c31)C(=O)NC4									0		95	52
O=C1c2ccccc2-c2n[nH]c3cccc1c23	77	14	93	85	15	74	58	89	66	59	83	31

Results, then the molecule that gave them:

residual activity ([1]; compound 1.0 µM) [%]	residual activity ([2]; compound 10.0 µM) [%]	residual activity ([3]; compound 1.0 µM) [%]	residual activity ([3]; compound 10.0 µM) [%]	residual activity ([1]; compound 10.0 µM) [%]	residual activity ([4]; compound 1.0 µM) [%]	residual activity ([4]; compound 10.0 µM) [%]	residual activity ([5]; compound 1.0 µM) [%]	residual activity ([5]; compound 10.0 µM) [%]	residual activity ([2]; compound 1.0 µM) [%]	residual activity ([6]; compound 1.0 µM) [%]	residual activity ([6]; compound 10.0 µM) [%]	SMILES
25	24	105	88	12	10	1	95	64	78	63	20	O=C1Nc2ccccc2/C1=C1\Nc2ccccc2\C1=N/O
				100								O=C(Nc1cccc(Nc2nccc(Nc3cccc(C(F)(F)F)c3)n2)c1)C1CC1
